Measurements taken from ChEMBL document CHEMBL5244231, “Total synthesis, chemical modification and structure-activity relationship of bufadienolides” (Eur J Med Chem, 2020).

How the values were obtained:
[1] = target: Sodium/potassium-transporting ATPase; test: Inhibition of NA+/K+ ATPase (unknown origin) activity; assay type: protein-complex assay, Homo sapiens
[2] = target: Sodium/potassium-transporting ATPase; test: Inhibition of NA+/K+ ATPase (unknown origin) activity assessed as inhibition constant; assay type: protein-complex assay, Homo sapiens
DU-145 = test: Antiproliferative activity against human DU-145 cells assessed as cell growth inhibition; assay type: functional, cell-based
PC-3 [3] = test: Antiproliferative activity against human PC-3 cells assessed as cell growth inhibition; assay type: functional, cell-based
LNCaP [4] = test: Antiproliferative activity against human LNCaP cells assessed as cell growth inhibition; assay type: functional, cell-based
HeLa [5] = test: Antiproliferative activity against human HeLa cells assessed as cell growth inhibition by MTT assay; assay type: functional, cell-based
Androgen receptor = target: T1, Androgen receptor (Homo sapiens, UniProt P10275); test: Binding affinity to AR (unknown origin) incubated for 4 hrs by fluorescence polarization assay
T1 sequence (P10275 whole entry): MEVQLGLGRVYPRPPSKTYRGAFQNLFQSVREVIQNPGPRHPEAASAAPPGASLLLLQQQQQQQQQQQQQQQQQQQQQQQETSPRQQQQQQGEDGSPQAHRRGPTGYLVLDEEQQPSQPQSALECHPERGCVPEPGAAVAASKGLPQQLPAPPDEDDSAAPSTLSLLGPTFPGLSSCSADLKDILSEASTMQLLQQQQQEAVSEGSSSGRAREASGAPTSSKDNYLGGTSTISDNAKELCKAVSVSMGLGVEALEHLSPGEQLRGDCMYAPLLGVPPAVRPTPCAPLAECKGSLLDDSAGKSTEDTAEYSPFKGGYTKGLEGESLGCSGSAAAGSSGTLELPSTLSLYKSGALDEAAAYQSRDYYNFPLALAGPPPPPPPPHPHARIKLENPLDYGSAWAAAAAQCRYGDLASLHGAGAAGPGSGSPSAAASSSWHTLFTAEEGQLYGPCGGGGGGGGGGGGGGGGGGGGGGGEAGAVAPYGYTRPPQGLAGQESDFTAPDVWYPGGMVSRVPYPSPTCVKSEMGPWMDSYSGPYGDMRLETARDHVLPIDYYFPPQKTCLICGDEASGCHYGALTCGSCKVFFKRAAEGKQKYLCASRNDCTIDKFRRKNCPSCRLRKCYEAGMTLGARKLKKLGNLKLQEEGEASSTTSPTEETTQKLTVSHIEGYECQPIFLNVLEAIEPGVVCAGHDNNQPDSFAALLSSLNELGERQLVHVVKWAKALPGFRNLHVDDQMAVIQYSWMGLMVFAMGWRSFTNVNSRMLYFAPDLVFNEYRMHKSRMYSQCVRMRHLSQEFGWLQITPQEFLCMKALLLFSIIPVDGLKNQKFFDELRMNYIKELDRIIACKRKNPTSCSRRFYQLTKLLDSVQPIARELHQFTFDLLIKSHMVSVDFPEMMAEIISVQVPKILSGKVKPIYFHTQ

LNCaP [6] = test: Antiproliferative activity against human LNCaP cells assessed as cell growth inhibition incubated for 48 hrs by MTT assay; assay type: functional, cell-based
PC-3 [7] = test: Antiproliferative activity against human PC-3 cells assessed as cell growth inhibition incubated for 48 hrs by MTT assay; assay type: functional, cell-based; details: PC-3, 48 h
HeLa [8] = test: Antiproliferative activity against human HeLa cells assessed as cell growth inhibition incubated for 72 hrs by MTT assay; assay type: functional, cell-based
A549 = test: Antiproliferative activity against human A549 cells assessed as cell growth inhibition incubated for 72 hrs by MTT assay; assay type: functional, cell-based; details: A549, 72 h
HepG2 = test: Antiproliferative activity against human HepG2 cells assessed as cell growth inhibition by MTT assay; assay type: functional, cell-based
Daudi = test: Antiproliferative activity against human Daudi cells assessed as cell growth inhibition by MTT assay; assay type: functional, cell-based
MV4-11 [9] = test: Antiproliferative activity against human MV4-11 cells assessed as cell growth inhibition by MTT assay; assay type: functional, cell-based
Jurkat = test: Antiproliferative activity against human Jurkat cells assessed as cell growth inhibition by MTT assay; assay type: functional, cell-based
HT-1080 = test: Antiproliferative activity against human HT-1080 cells assessed as cell growth inhibition by MTT assay; assay type: functional, cell-based
PC-3 [10] = test: Antiproliferative activity against human PC-3 cells assessed as cell growth inhibition by MTT assay; assay type: functional, cell-based
AGS = test: Antiproliferative activity against human AGS cells assessed as cell growth inhibition by MTT assay; assay type: functional, cell-based
MCF7 = test: Antiproliferative activity against human MCF7 cells assessed as cell growth inhibition by MTT assay; assay type: functional, cell-based
NCI-H2228 = test: Antiproliferative activity against human NCI-H2228 cells assessed as cell growth inhibition by MTT assay; assay type: functional, cell-based
MV4-11 [11] = test: Antitumor activity in human MV4-11 cells xenografted in mouse assessed as tumor growth inhibition at 2 mg/kg, iv administered every other day for 21 days relative to control; assay type: functional; details: MV4-11, 504 h, time 21 day
MV4-11 [12] = test: Antitumor activity in human MV4-11 cells xenografted in mouse assessed as tumor growth inhibition at 4 mg/kg, IG administered every other day for 21 days relative to control; assay type: functional; details: MV4-11, po, 504 h, time 21 day

## C[C@]12CC[C@H](O)C[C@H]1CC[C@H]1C3=CC[C@H](c4ccc(=S)oc4)[C@@]3(C)CC[C@@H]12
[1]
  IC50: 35.8 µM

## CN(C)C(=O)/C=C/C1=CO[C@]23CCC1[C@@]2(C)CC[C@H]1[C@H]3CC[C@@H]2C[C@@H](O)CC[C@@]21C
[2]
  Ki: 70 µM
DU-145
  IC50: 10 µM
PC-3 [3]
  IC50: 10 µM
LNCaP [4]
  IC50: 10 µM

## C[C@]12CC[C@H](O)C[C@H]1CC[C@@H]1[C@@H]2CC[C@]2(C)[C@@H](c3ccc(=O)[nH]c3)CC[C@]12O
[2]
  Ki: 70 µM
DU-145
  IC50: 10 µM
PC-3 [3]
  IC50: 10 µM
LNCaP [4]
  IC50: 10 µM

## C[C@]12CC[C@H](OC(=O)N3CCNCC3)C[C@H]1CC[C@@H]1[C@@H]2CC[C@]2(C)[C@@H](c3ccc(=O)oc3)CC[C@]12O
HeLa [5]
  IC50: 0.77 nM

## C[C@]12CC[C@H](O)CC1CCC1=C3CC[C@H](c4ccc(=O)oc4)[C@@]3(C)CCC12 (some centres undefined)
Androgen receptor
  IC50: > 50 µM
LNCaP [6]
  IC50: 6.8 µM
PC-3 [7]
  IC50: 16.4 µM
[1]
  IC50: 5.6 µM

## C[C@]12CC[C@H](O)CC1CCC1C3=CC[C@H](c4ccc(=O)oc4)[C@@]3(C)CCC12 (some centres undefined)
Androgen receptor
  IC50: > 50 µM

## C[C@]12CC[C@H](OC(=O)C3CCNCC3)C[C@H]1CC[C@@H]1[C@@H]2CC[C@]2(C)[C@@H](c3ccc(=O)oc3)CC[C@]12O
HeLa [8]
  IC50: 0.76 nM
A549
  IC50: 0.34 nM

## C[C@]12CC[C@H](OC(=O)NC3CCNCC3)C[C@H]1CC[C@@H]1[C@@H]2CC[C@]2(C)[C@@H](c3ccc(=O)oc3)CC[C@]12O
HeLa [5]
  IC50: 0.3 nM
HepG2
  IC50: 0.3 nM
Daudi
  IC50: 0.3 nM
MV4-11 [9]
  IC50: 0.3 nM
Jurkat
  IC50: 0.3 nM
HT-1080
  IC50: 0.3 nM
PC-3 [10]
  IC50: 0.3 nM
AGS
  IC50: 0.3 nM
MCF7
  IC50: 0.3 nM
NCI-H2228
  IC50: 0.3 nM
MV4-11 [11]
  inhibition in vivo at 2 mg/kg: 100%
MV4-11 [12]
  inhibition in vivo at 4 mg/kg: 100%
